Test results taken from patent publication US8754076B2, “Cyclic inhibitors of 11beta-hydroxysteroid dehydrogenase 1” (Vitae Pharmaceuticals, Inc./Boehringer-Ingelheim, priority 2008, dated 2014).

Key:
human CYP2C9 = human CYP2C9 (Homo sapiens, UniProt P11712); assay: Biological Test Example 9: CYP2C9 inhibition (Invitrogen kit, fluorogenic substrate OOMR); type: in vitro ADME
human 11β-HSD1 = target: T1, human 11β-HSD1 (Homo sapiens, UniProt P28845); type: biochemical
T1 construct: expressed in transfected cells; host or cells: CHO cells (microsomal preparation)
T1 sequence (P28845 whole entry): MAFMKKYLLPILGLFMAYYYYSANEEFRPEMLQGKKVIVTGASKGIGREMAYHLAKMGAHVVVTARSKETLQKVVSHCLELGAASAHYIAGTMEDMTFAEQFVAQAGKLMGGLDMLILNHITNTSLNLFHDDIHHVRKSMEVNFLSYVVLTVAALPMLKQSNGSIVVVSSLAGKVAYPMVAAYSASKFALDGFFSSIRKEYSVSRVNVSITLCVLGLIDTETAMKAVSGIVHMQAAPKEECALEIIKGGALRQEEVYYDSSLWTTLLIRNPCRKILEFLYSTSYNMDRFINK

Chain of human CYP2C9 (P11712 whole entry): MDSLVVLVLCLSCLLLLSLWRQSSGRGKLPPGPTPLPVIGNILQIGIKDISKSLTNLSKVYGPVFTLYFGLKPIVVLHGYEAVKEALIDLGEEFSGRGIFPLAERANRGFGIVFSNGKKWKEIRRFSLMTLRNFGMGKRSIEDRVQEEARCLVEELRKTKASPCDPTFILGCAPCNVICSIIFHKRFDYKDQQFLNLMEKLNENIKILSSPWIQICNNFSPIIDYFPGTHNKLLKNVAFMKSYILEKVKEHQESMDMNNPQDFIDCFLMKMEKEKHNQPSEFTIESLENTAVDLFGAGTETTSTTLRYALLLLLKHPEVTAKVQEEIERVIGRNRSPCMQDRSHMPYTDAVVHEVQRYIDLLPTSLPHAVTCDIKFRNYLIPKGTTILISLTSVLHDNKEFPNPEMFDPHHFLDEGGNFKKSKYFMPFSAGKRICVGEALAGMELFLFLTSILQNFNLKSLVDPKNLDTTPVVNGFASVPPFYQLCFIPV

Row | SMILES | IC50 (human CYP2C9) | Shift (human 11β-HSD1)
1 | C[C@@H](c1ccc(-c2ccn(C3CC3)c(=O)c2)cc1)N1CCC(CC2CC2)(CC(C)(C)O)OC1=O (single isomer, unassigned) [93 Isomer 1] | 28.5 µM | –
2 | C[C@@H](c1ccc(-c2cccn(C)c2=O)cc1)N1CC[C@](CCCO)(c2ccc(F)cc2)OC1=O [Example 42, (R)-6-(4-fluorophenyl)-6-(3-hydroxypropyl)-3-((S)-1-(4-(1-methyl-2-oxo-1,2-dihydropyridin-3-yl)phenyl)ethyl)-1,3-oxazinan-2-one] | – | 7.97
3 | C[C@@H](c1ccc(-c2ccn(C)c(=O)c2)cc1)N1CC[C@](CC(C)(C)O)(c2ccccc2)OC1=O [Example 48, (S)-6-(2-hydroxy-2-methylpropyl)-3-((S)-1-(4-(1-methyl-2-oxo-1,2-dihydropyridin-4-yl)phenyl)ethyl)-6-phenyl-1,3-oxazinan-2-one] | > 30 µM | –
4 | CCn1cc(-c2ccc([C@H](C)N3CC[C@](CC(C)(C)O)(c4ccccc4)OC3=O)cc2)ccc1=O [Example 53, (S)-3-((S)-1-(4-(1-ethyl-6-oxo-1,6-dihydropyridin-3-yl)phenyl)ethyl)-6-(2-hydroxy-2-methylpropyl)-6-phenyl-1,3-oxazinan-2-one] | > 30 µM | –
